From ChEMBL document CHEMBL1152405, “Bis-anthracenyl isoxazolyl amides have enhanced anticancer activity” (Bioorg Med Chem Lett, 2009)

Assays:
Format in all cases: functional
HOP-62 [1] = test: Growth inhibition of human HOP62 cells at 10 uM after 24 hrs by MTT assay relative to control; set-up: scale not given: the % may be the effect or the level left
HOP-92 = test: Growth inhibition of human HOP92 cells at 10 uM after 24 hrs by MTT assay relative to control; set-up: scale not given: the % may be the effect or the level left
NCI-H460 = test: Growth inhibition of human NCI-H460 cells at 10 uM after 24 hrs by MTT assay relative to control; set-up: scale not given: the % may be the effect or the level left
COLO 205 = test: Growth inhibition of human COLO205 cells at 10 uM after 24 hrs by MTT assay relative to control; set-up: scale not given: the % may be the effect or the level left
MCF7 [2] = test: Growth inhibition of human MCF7 cells at 10 uM after 24 hrs by MTT assay relative to control; set-up: scale not given: the % may be the effect or the level left
OVCAR-3 = test: Growth inhibition of human OVCAR-3 cells at 10 uM after 24 hrs by MTT assay relative to control; set-up: scale not given: the % may be the effect or the level left
K562 [3] = test: Growth inhibition of human K562 cells at 10 uM after 24 hrs by MTT assay relative to control; set-up: scale not given: the % may be the effect or the level left
A498 = test: Growth inhibition of human A498 cells at 10 uM after 24 hrs by MTT assay relative to control; set-up: scale not given: the % may be the effect or the level left
ACHN = test: Growth inhibition of human ACHN cells at 10 uM after 24 hrs by MTT assay relative to control; set-up: scale not given: the % may be the effect or the level left
CAKI-1 [4] = test: Growth inhibition of human Caki1 cells at 10 uM after 24 hrs by MTT assay relative to control; set-up: scale not given: the % may be the effect or the level left
UO-31 = test: Growth inhibition of human UO31 cells at 10 uM after 24 hrs by MTT assay relative to control; set-up: scale not given: the % may be the effect or the level left
Malme-3M = test: Growth inhibition of human MALME-3M cells at 10 uM after 24 hrs by MTT assay relative to control; set-up: scale not given: the % may be the effect or the level left
SK-MEL-2 [5] = test: Growth inhibition of human SK-MEL-2 cells at 10 uM after 24 hrs by MTT assay relative to control; set-up: scale not given: the % may be the effect or the level left
SK-MEL-5 [6] = test: Growth inhibition of human SK-MEL-5 cells at 10 uM after 24 hrs by MTT assay relative to control; set-up: scale not given: the % may be the effect or the level left
SF-268 [7] = test: Growth inhibition of human SF268 cells at 10 uM after 24 hrs by MTT assay relative to control; set-up: scale not given: the % may be the effect or the level left
CCRF-CEM = test: Growth inhibition of human CCRF-CEM cells after 24 hrs by MTT assay
HL-60(TB) = test: Growth inhibition of human HL-60(TB) cells after 24 hrs by MTT assay; conditions: HL-60, 24 h
K562 [8] = test: Growth inhibition of human K562 cells after 24 hrs by MTT assay; conditions: K562, 24 h
MOLT-4 = test: Growth inhibition of human MOLT4 cells after 24 hrs by MTT assay; conditions: MOLT-4, 24 h
SR = test: Growth inhibition of human SR cells after 24 hrs by MTT assay
HOP-62 [9] = test: Growth inhibition of human HOP62 cells after 24 hrs by MTT assay; conditions: HOP-62, 24 h
NCI-H23 = test: Growth inhibition of human NCI-H23 cells after 24 hrs by MTT assay; conditions: NCI-H23, 24 h
SF-268 [10] = test: Growth inhibition of human SF268 cells after 24 hrs by MTT assay; conditions: SF-268, 24 h
SF-295 = test: Growth inhibition of human SF295 cells after 24 hrs by MTT assay; conditions: SF-295, 24 h
SNB-75 = test: Growth inhibition of human SNB75 cells after 24 hrs by MTT assay; conditions: SNB-75, 24 h
LOX IMVI = test: Growth inhibition of human LOXIMVI cells after 24 hrs by MTT assay
SK-MEL-2 [11] = test: Growth inhibition of human SK-MEL-2 cells after 24 hrs by MTT assay; conditions: SK-MEL-2, 24 h
SK-MEL-5 [12] = test: Growth inhibition of human SK-MEL-5 cells after 24 hrs by MTT assay; conditions: SK-MEL-5, 24 h
UACC-257 = test: Growth inhibition of human UACC257 cells after 24 hrs by MTT assay; conditions: UACC-257, 24 h
UACC-62 = test: Growth inhibition of human UACC62 cells after 24 hrs by MTT assay; conditions: UACC-62, 24 h
CAKI-1 [13] = test: Growth inhibition of human Caki1 cells after 24 hrs by MTT assay; conditions: CAKI-1, 24 h
DU-145 = test: Growth inhibition of human DU145 cells after 24 hrs by MTT assay; conditions: DU-145, 24 h
MCF7 [14] = test: Growth inhibition of human MCF7 cells after 24 hrs by MTT assay; conditions: MCF7, 24 h
BT-549 = test: Growth inhibition of human BT549 cells after 24 hrs by MTT assay; conditions: BT-549, 24 h
[15] = read-out: LC50 (the source's name)
[16] = read-out: pLC50 (the source's name) (converted)

SMILES: Cc1onc(-c2c3ccccc3c(Cl)c3ccccc23)c1C(=O)Nc1cc(C(=O)NCCCN(C)CCCNC(=O)c2cc(NC(=O)c3c(-c4c5ccccc5c(Cl)c5ccccc45)noc3C)cn2C)n(C)c1
- Activity (HOP-62 [1]): -87.55%
- Activity (HOP-92): -16.66%
- Activity (NCI-H460): -100%
- Activity (COLO 205): -100%
- Activity (MCF7 [2]): -100%
- Activity (OVCAR-3): -100%
- Activity (K562 [3]): -100%
- Activity (A498): 103.19%
- Activity (ACHN): -100%
- Activity (CAKI-1 [4]): -74.88%
- Activity (UO-31): -80.7%
- Activity (Malme-3M): -86.28%
- Activity (SK-MEL-2 [5]): -77.54%
- Activity (SK-MEL-5 [6]): -100%
- Activity (SF-268 [7]): -100%
- TGI (CCRF-CEM): 3.55 µM
- GI50 (CCRF-CEM; read-out: GI50): 1.6 µM
- CC50 (CCRF-CEM; [15]): 7.9 µM
- GI50 (CCRF-CEM; read-out: pGI50 (converted)): 1.58 µM
- CC50 (CCRF-CEM; [16]): 7.94 µM
- TGI (HL-60(TB)): 8.3 µM
- GI50 (HL-60(TB); read-out: GI50): 1.61 µM
- CC50 (HL-60(TB); [15]): 42 µM
- GI50 (HL-60(TB); read-out: pGI50 (converted)): 1.62 µM
- CC50 (HL-60(TB); [16]): 41.7 µM
- TGI (K562 [8]): 2.19 µM
- GI50 (K562 [8]; read-out: GI50): 0.822 µM
- CC50 (K562 [8]; [15]): 5.14 µM
- GI50 (K562 [8]; read-out: pGI50 (converted)): 0.813 µM
- CC50 (K562 [8]; [16]): 5.13 µM
- TGI (MOLT-4): 2.43 µM
- GI50 (MOLT-4; read-out: GI50): 0.615 µM
- CC50 (MOLT-4; [15]): 7.96 µM
- GI50 (MOLT-4; read-out: pGI50 (converted)): 0.617 µM
- CC50 (MOLT-4; [16]): 7.94 µM
- LC50 (SR): 100 µM
- TGI (SR): 2.03 µM
- GI50 (SR; read-out: GI50): 0.394 µM
- GI50 (SR; read-out: pGI50 (converted)): 0.398 µM
- CC50 (SR; [16]): > 100 µM
- TGI (HOP-62 [9]): 2.65 µM
- GI50 (HOP-62 [9]; read-out: GI50): 1.36 µM
- CC50 (HOP-62 [9]; [15]): 5.14 µM
- GI50 (HOP-62 [9]; read-out: pGI50 (converted)): 1.35 µM
- CC50 (HOP-62 [9]; [16]): 5.13 µM
- TGI (NCI-H23): 3.01 µM
- GI50 (NCI-H23; read-out: GI50): 1.54 µM
- CC50 (NCI-H23; [15]): 5.85 µM
- GI50 (NCI-H23; read-out: pGI50 (converted)): 1.55 µM
- CC50 (NCI-H23; [16]): 5.89 µM
- TGI (SF-268 [10]): 2.9 µM
- GI50 (SF-268 [10]; read-out: GI50): 1.39 µM
- GI50 (SF-268 [10]; read-out: pGI50 (converted)): 1.38 µM
- TGI (SF-295): 3.33 µM
- GI50 (SF-295; read-out: GI50): 1.67 µM
- GI50 (SF-295; read-out: pGI50 (converted)): 1.66 µM
- TGI (SNB-75): 2.71 µM
- GI50 (SNB-75; read-out: GI50): 1.07 µM
- CC50 (SNB-75; [15]): 6.84 µM
- GI50 (SNB-75; read-out: pGI50 (converted)): 1.07 µM
- CC50 (SNB-75; [16]): 6.92 µM
- TGI (LOX IMVI): 2.96 µM
- GI50 (LOX IMVI; read-out: GI50): 1.38 µM
- GI50 (LOX IMVI; read-out: pGI50 (converted)): 1.38 µM
- TGI (SK-MEL-2 [11]): 4.1 µM
- GI50 (SK-MEL-2 [11]; read-out: GI50): 2.08 µM
- GI50 (SK-MEL-2 [11]; read-out: pGI50 (converted)): 2.09 µM
- TGI (SK-MEL-5 [12]): 2.79 µM
- GI50 (SK-MEL-5 [12]; read-out: GI50): 1.48 µM
- CC50 (SK-MEL-5 [12]; [15]): 5.28 µM
- GI50 (SK-MEL-5 [12]; read-out: pGI50 (converted)): 1.48 µM
- CC50 (SK-MEL-5 [12]; [16]): 5.25 µM
- TGI (UACC-257): 4.63 µM
- GI50 (UACC-257; read-out: GI50): 2.15 µM
- GI50 (UACC-257; read-out: pGI50 (converted)): 2.14 µM
- TGI (UACC-62): 3.44 µM
- GI50 (UACC-62; read-out: GI50): 1.7 µM
- GI50 (UACC-62; read-out: pGI50 (converted)): 1.7 µM
- TGI (CAKI-1 [13]): 5.85 µM
- GI50 (CAKI-1 [13]; read-out: GI50): 2.4 µM
- CC50 (CAKI-1 [13]; [15]): 31.3 µM
- GI50 (CAKI-1 [13]; read-out: pGI50 (converted)): 2.4 µM
- CC50 (CAKI-1 [13]; [16]): 31.6 µM
- TGI (DU-145): 2.6 µM
- GI50 (DU-145; read-out: GI50): 1.33 µM
- CC50 (DU-145; [15]): 5.1 µM
- GI50 (DU-145; read-out: pGI50 (converted)): 1.32 µM
- CC50 (DU-145; [16]): 5.13 µM
- TGI (MCF7 [14]): 2.4 µM
- GI50 (MCF7 [14]; read-out: GI50): 1.18 µM
- CC50 (MCF7 [14]; [15]): 4.9 µM
- GI50 (MCF7 [14]; read-out: pGI50 (converted)): 1.17 µM
- CC50 (MCF7 [14]; [16]): 4.9 µM
- TGI (BT-549): 10.2 µM
- GI50 (BT-549; read-out: GI50): 2.92 µM
- CC50 (BT-549; [15]): 100 µM
- GI50 (BT-549; read-out: pGI50 (converted)): 2.95 µM
- CC50 (BT-549; [16]): > 100 µM
